Data set [1] can be described thus: Growth inhibition (OD610), mixed chemostat culture. In kind it is cell-based, A. viscosus, L. casei, S. oralis, F. nucleatum, V. parvula. The conditions noted are these: Mixed species incubated in 37° C. As to the method:
Single species of Streptococcus gordonii (S. gordonii, S.g) strain V288 (ATCC #35105), Streptococcus sobrinus (S. sobrinus, S.$) strain SL1[CCM 6070, CNCTC 9/89] (ATCC #33478), or Aggregatibacter actinomycetemcomitans were analyzed. Also, a mixed culture containing Actinomyces viscosus (A. viscosus, A.v) strain (ATCC, #43146), Lactobacillus casei (L. casei, L.c) strain (ATCC #334), Streptococcus oralis (S. oralis, S. o) strain (ATCC #35037), Fusobacterium nucleatum (F. nucleatum, F. n) strain (ATCC #10953), and Veilonella parvula (V. parvula, V. p) strain (ATCC #17745) was also analyzed for growth inhibition/toxicity activity. Bacteria were cultured overnight in approximately 20 ml of BHI broth (BD, cat #237500) or maintained in a specialized complex modified BHI II medium in a continuous culture chemostat at 37° C. respectively. The following day, the OD610 were determined and solutions diluted to an OD610 of 0.2 or 0.1 respectively for the assay.
Triclosan (positive control) was prepared as a 10% stock in 100% EtOH and 3 fold serial dilutions were performed in 100% EtOH. An appropriate amount of the diluted samples was then transferred into a 96 well clear plate such that the resulting final concentration of the test samples ranged from either a 2 mM or 4 mM (highest concentration) to 0.0078 mM or 0.0156 mM (lowest concentration respectively) in 2% DMSO in 100 μl media per well. Triclosan (TCN) ranged from 0.01% to 1.67e-6% in 1% EtOH. For Zinc acetate, in order to mimic the 2:1 molar ratio (ligand:Zinc) in the Naringin:Zinc complex, the final concentration ranged from 0.7 mM to 0.0027 mM for samples with 2 mM as the highest concentration and 1.33 mM to […] for samples with 4 mM as the highest concentration in 2% DMSO. Next, 100 μl of bacterial culture at OD610 0.2 were introduced to the wells with the test samples. The wells were thoroughly mixed and incubated at 37° C. overnight. The plates were read using an Envision plate reader (PerkinElmer, Waltham, Mass.) at 610 nm.
The IC50 for the complex, Product 5, was determined for Streptococcus gordonii (S. gordonii), Streptococcus sobrinus (S. sobrinus), Aggregatibacter actinomycetemcomitans (A. actinomycetemcomitans), and also for the mixed bacterial culture. […] Triclosan (TCN) was included as a positive control for bacterial inhibition.
Antimicrobial characterization was also performed on mixed culture solutions having at least five microbial species present. A mixed culture containing Actinomyces viscosus (A. viscosus, A.v) (ATCC, #43146), Lactobacillus casei (L. casei, L.c) (ATCC #334), Streptococcus oralis (S. oralis, S.o) (ATCC #35037), Fusobacterium nucleatum (F. nucleatum, F.n) (ATCC #10953) and Veilonella parvula (V. parvula, V.p) (ATCC #17745) was maintained in a specialized complex medium (Modified BHI II Medium) in a continuous culture chemostat at 37° C. Approximately 10 ml of the culture was removed and the OD610 was determined. The assay was performed using cultures at two concentrations; 0.03 and 0.1 at OD610. […] Triclosan (positive control) was prepared as a 10% stock in 100% EtOH and 3 fold serial dilutions were performed in 100% EtOH. […] For Zinc Acetate, in order to mimic the 2:1 ratio (ligand:Zinc) composition as in the complex, the final concentration range from 0.7 mM to 0.0027 mM in 2% DMSO was used instead.
A 100 μl of bacterial culture at chosen OD610 (0.03 or 0.1) was introduced into the wells with the test samples. The wells were thoroughly mixed and plates incubated overnight in a 37° C. incubator with or without 5% CO2. After approximately 12-13 hours of treatment, the plate was read using Envision plate reader (Serial #1040984), absorbance at 610 nm. The % inhibition relative to control was determined as described for previously described antimicrobial protocols, supra.

Data set [2] concerns EpiGingival™ tissue models. The data set is described as follows: Tissue zinc uptake analysis. The conditions noted are these: 2 minute treatment. In kind it is in vitro ADME. As to the method:
All samples were prepared in a final concentration of 1% DMSO in 7% of Propylene Glycol (PG). […] For the vehicle only control, 1% DMSO in 7% PG was used. All samples were equilibrated to 37° C. prior to testing.
Zinc uptake studies were performed using EpiGingival™ tissue models from MatTek Corporation. Briefly, EpiGingival™ tissue inserts were equilibrated overnight in 1 ml of the EpiGingival™ assay media (supplied by MatTek Corporation). For testing, working with one insert at a time, the insert was removed and placed inside a clean 6 well plate. Then, 1 ml of the test sample was carefully removed and introduced to the inside of the insert and allowed to incubate for 2 minutes. Next, the samples were removed using an aspirator and the tissue rinsed with 1 ml of warm water (37° C.). This was repeated for 2 more times for a total of 3 washes. At the end of the last wash making sure to remove as much of the water as possible, the tissue was disengaged from the insert with the tip of a sterile forceps, and transferred into a clean 15 ml Falcon tube. The process was repeated until all the tissues were treated. Experiments were performed three times with each test sample assayed in duplicate.
Digestion of Tissues: Briefly, 0.5 ml of a mixture of 7:3 HCl/HNO3 was introduced into a 15 ml Falcon tube containing one of the treated tissue samples and allowed to digest overnight. The following day, 4.5 ml of water was added to each of the digested tissue samples, thoroughly mixed and centrifuged at 4,000 RPM for 10 minutes at room temperature. The clear supernatant (4.5 ml) was transferred into a clean, labeled Falcon tube and submitted for analytical analysis of Zinc.
A one way ANOVA was done to determine the p value. A plot of the average zinc (ppm) against the various treatments was generated (see FIG. 19).

Setting [3] is: 1 mM complex or combination, 0.33 mM Zinc acetate.

The term inhibition denotes the percentage by which the read-out fell short of the control.

Regarding `C[C@@H]1O[C@@H](O[C@H]2[C@H](Oc3cc(O)c4c(c3)O[C@H](c3ccc(O)cc3)CC4=O)O[C@H](CO)[C@@H](O)[C@@H]2O)[C@H](O)[C@H](O)[C@H]1O` [Naringin], the inhibition at 250 µM in data set [1] (5% CO2 (anaerobic), 0.25 mM (combination 0.1625 mM + 0.0875 mM, 0.25 mM total)) came to 3.51 ± 1.53%; in data set [1] (Air (aerobic), 0.25 mM (combination 0.25 mM total)) it was 3.1 ± 3.31%.

For `CC(=O)[O-].CC(=O)[O-].[Zn+2]` [Zinc Acetate alone, Zinc (II) Acetate], in data set [2] (1 mM complex or combination (0.67 mM + 0.33 mM), 0.33 mM Zinc acetate), the “Zn (ppm) Preparation 1 N1” value is listed as 0.96 ppm. Further, in data set [2] (setting [3]), the “Zn (ppm) Preparation 1 N2” value amounted to 0.92 ppm, the “Zn (ppm) Preparation 2 N1” value worked out at 0.82 ppm, the “Zn (ppm) Preparation 2 N2” value is listed as 0.81 ppm and the “Zn (ppm) Preparation 3 N1” value is on record as 0.84 ppm. For the same compound, the “Zn (ppm) Preparation 3 N2” value in data set [2] (setting [3]) is on record as 0.85 ppm. Also, the “Zn Ave (ppm)” value in data set [2] (average of three preparations in duplicate) is 0.87 ppm.

Source of the values: US10548829B2, “Oral care compositions and methods of use” (priority 2016, dated 2020).
